Assay results as given in patent US8486996B2, “Aroylfuranes and aroylthiophenes” (Basilea Pharmaceutica AG, priority 2006, dated 2013).
Where two headings read alike, the source gives them in different places.

Key:
Type in all cases: cell-based
[1] = Hoechst 33342 nuclear staining (48 h read-out)
Experimental: (§1) A) Hoechst 33342 Nuclear Staining
(§2) This assay is performed in 96 well tissue culture plates. Appropriate number of cells (adherent cells: 3-5*10^3, suspension cells: 8-10*10^3) are being seeded out in 80 μl complete medium. Adherent cells are incubated for 24 h for proper spreading out before addition of test compounds while suspension cells are immediately treated with test compounds after seeding out. The test compounds are added in 20 μl complete medium containing max 5% DMSO. The final compound concentrations in the assays are in the range of 0.001 μM-10 μM. After 24 h or 48 h incubation at culture conditions, 10 μl medium containing Hoechst 33342 dye (Sigma B-2261) at 2-5 μg/ml are added to each well. The assay plates are then further incubated for 30 minutes and subsequently analyzed with a standard inverted fluorescence microscope.
(§3) The readout allows the determination of the fraction of apoptotic nuclei as well as other morphological criteria specific for apoptosis as a function of the treatment. The scores A, B, C and D are explained at the end of the Table.

tumor cells [2] = assay: Hoechst 33342 nuclear staining (48 h read-out)
Experimental: as §1, §2, §3

[3] = MTS proliferation assay (72 h read-out); conditions: MRC5 cells
Experimental: (§4) B) MTS Proliferation Assay
(§5) The assay is performed in 96 well tissue culture plates. The cells (range: 1.5*10^3-10^4) are seeded out in 80 μl complete medium 24 h prior to compound treatment. The test compounds are added in 20 μl complete medium containing max 5% DMSO. The final compound concentrations in the assays are in the range of 0.001 μM-10 μM. The assay plates are incubated for 72 h at culture conditions. The MTS reagent is prepared according to the manufacturer's protocol (Promega G1111). 20 μl MTS reagent are added to each well; the assay plates are quickly spun and incubated for another 3 h at culture conditions. Subsequently, the plates are shortly shaked and absorption measured with a microplate-reader at 492 nm. The scores A, B, C and D are explained at the end of the Table.

tumor cells [4] = assay: MTS proliferation assay (72 h read-out)
Experimental: as §4, §5

[5] = Mitochondrial membrane potential, JC-1 (read-out 48 h); conditions: PBL, JC-1, 48 h
Experimental: (§6) D) Mitochondrial Membrane Potential
as §2, with “The final compound concentrations in the assays are in the range of 0.001 μM-10 μM.” left out, “JC-1 (Molecular Probes, T-3168)” for “Hoechst 33342 dye (Sigma B-2261)”, “microscope by using the FITC and TRITC filters.” for “microscope.”
(§7) The readout allows the determination of the fraction of cells which show a dissipation of the mitochondrial membrane potential strongly indicating an apoptotic cell death as a function of the treatment. The scores A, B, C and D are explained at the end of the Table.

tumor cells [6] = assay: as above; conditions: JC-1, 48 h
Experimental: as §6
as §2, with “The final compound concentrations in the assays are in the range of 0.001 μM-10 μM.” left out, “JC-1 (Molecular Probes, T-3168)” for “Hoechst 33342 dye (Sigma B-2261)”, “microscope by using the FITC and TRITC filters.” for “microscope.”
as §7

[7] = MRC5 cells, read-out: Hoechst 33342 nuclear staining EC50, MRC5
[8] = PBL, read-out: Hoechst 33342 nuclear staining EC50, PBL
[9] = HeLa cells, read-out: Hoechst 33342 nuclear staining EC50, HeLa
[10] = Jily cells, read-out: Hoechst 33342 nuclear staining EC50, Jily
[11] = Jurkat cells, read-out: Hoechst 33342 nuclear staining EC50, Jurkat
[12] = HT1080 cells, read-out: MTS proliferation assay IC50, HT1080
[13] = HeLa cells, read-out: MTS proliferation assay IC50, HeLa
[14] = Jily cells, read-out: MTS proliferation assay IC50, Jily
[15] = Jurkat cells, read-out: MTS proliferation assay IC50, Jurkat
[16] = HeLa cells, read-out: Mitochondrial membrane potential (read-out 48 h) HeLa
[17] = Jily cells, read-out: Mitochondrial membrane potential (read-out 48 h) Jily
[18] = Jurkat cells, read-out: Mitochondrial membrane potential (read-out 48 h) Jurkat
[19] = MCF7 cells, read-out: Mitochondrial membrane potential (read-out 48 h) MCF7

| EC50 [1, 8] [nM] | EC50 (tumor cells [2]; [9]) [nM] | EC50 (tumor cells [2]; [10]) [nM] | EC50 (tumor cells [2]; [11]) [nM] | IC50 (tumor cells [4]; [12]) [nM] | IC50 (tumor cells [4]; [13]) [nM] | IC50 (tumor cells [4]; [14]) [nM] | IC50 (tumor cells [4]; [15]) [nM] | EC50 [5] [nM] | EC50 (tumor cells [6]; [16]) [nM] | EC50 (tumor cells [6]; [17]) [nM] | EC50 (tumor cells [6]; [18]) [nM] | EC50 (tumor cells [6]; [19]) [nM] | Structure (SMILES) | EC50 [1, 7] [nM] | IC50 [3] [nM] |
| --- | --- | --- | --- | --- | --- | --- | --- | --- | --- | --- | --- | --- | --- | --- | --- |
| > 1000 | > 1000 | > 1000 | > 1000 | > 1000 | > 1000 | > 1000 | > 1000 | > 1000 | > 1000 | > 1000 | > 1000 | > 1000 | CCOc1ccccc1C(=O)c1oc2ccc(I)cc2c1N [Example 43] | > 1000 | > 1000 |
| > 1000 | > 1000 | > 1000 | > 1000 | > 1000 | > 1000 | > 1000 | > 1000 | > 1000 | > 1000 | > 1000 | > 1000 | > 1000 | CCOc1ccc(C(=O)O)cc1C(=O)c1oc2ccc(Cl)cc2c1N [Example 44] | > 1000 | > 1000 |
| > 1000 | > 1000 | > 1000 | > 1000 | > 1000 | > 1000 | > 1000 | > 1000 | > 1000 | > 1000 | > 1000 | > 1000 | > 1000 | CCOc1ccccc1C(=O)c1oc2ccc(F)cc2c1N [Example 45] | > 1000 | > 1000 |
| > 1000 | > 1000 | > 1000 | > 1000 | > 1000 | > 1000 | > 1000 | > 1000 | > 1000 | > 1000 | > 1000 | > 1000 | > 1000 | CCOc1ccc(S(=O)(=O)N(C)C)cc1C(=O)c1oc2ccc(Cl)cc2c1N [Example 46] | > 1000 | > 1000 |
| – | – | – | – | 10 to 100 | 10 to 100 | 10 to 100 | 10 to 100 | – | – | – | – | – | COc1ccc2oc(C(=O)c3cc(F)ccc3N3CCCCC3)cc2c1 [Example 95] | – | 10 to 100 |
| > 1000 | 10 to 100 | < 10 | < 10 | – | – | – | – | > 1000 | 10 to 100 | < 10 | < 10 | 10 to 100 | CCOc1ccc2oc(C(=O)c3cc(F)ccc3N3CC=CCC3)cc2c1 [Example 111] | 10 to 100 | – |
| > 1000 | 10 to 100 | 10 to 100 | 10 to 100 | – | – | – | – | > 1000 | 10 to 100 | 10 to 100 | 10 to 100 | 10 to 100 | O=C(c1cc2cc(O)ccc2o1)c1cc(F)ccc1N1CC=CCC1 [Example 112] | 10 to 100 | – |
| – | > 1000 | – | 100 to 1000 | 100 to 1000 | 100 to 1000 | 100 to 1000 | 100 to 1000 | – | > 1000 | 100 to 1000 | 100 to 1000 | > 1000 | N#Cc1cnc2sc(C(=O)c3cc(F)ccc3N3CCOCC3)c(N)c2c1 [Example 136] | > 1000 | – |
